Test [1] has as its target T1, Thymidylate kinase (Mycobacterium tuberculosis) (UniProt P9WKE1).
T1 sequence (whole entry): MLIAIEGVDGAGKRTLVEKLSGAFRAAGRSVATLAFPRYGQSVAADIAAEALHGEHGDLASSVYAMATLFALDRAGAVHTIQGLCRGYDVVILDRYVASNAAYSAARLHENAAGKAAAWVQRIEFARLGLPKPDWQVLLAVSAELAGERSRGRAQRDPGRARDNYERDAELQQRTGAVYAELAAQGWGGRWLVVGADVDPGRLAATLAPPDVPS
Briefly: (§1) Kinetic parameter Vm of thymidine monophosphate kinase (TMPKmt) in Mycobacterium tuberculosis was determined. The test is classed as functional.

For test [2], the target named is T1, Thymidylate kinase (Mycobacterium tuberculosis). The test is described as §1.

In ChEMBL document CHEMBL1136204, “Thymidine and thymidine-5'-O-monophosphate analogues as inhibitors of Mycobacterium tuberculosis thymidylate kinase” (Bioorg Med Chem Lett, 2003) one finds Vm data, which are given here for five compounds.

Consider `O=c1ccn([C@H]2C[C@H](O)[C@@H](COP(=O)(O)O)O2)c(=O)[nH]1`, for which, in test [1], the Vm came to 3.5 µM/min/mg.

With `Cc1cn([C@H]2C[C@H](O)[C@@H](COP(=O)(O)O)O2)c(=O)[nH]c1=O`, the Vm in test [2] was 10.6 µM/min/mg.

Consider `O=c1[nH]c(=O)n([C@H]2C[C@H](O)[C@@H](COP(=O)(O)O)O2)cc1F`, for which, in test [1], the Vm stood at 4.7 µM/min/mg.

With `O=c1[nH]c(=O)n([C@H]2C[C@H](O)[C@@H](COP(=O)(O)O)O2)cc1I`, the Vm in test [1] stood at 7.5 µM/min/mg.

Compound `O=c1[nH]c(=O)n([C@H]2C[C@H](O)[C@@H](COP(=O)(O)O)O2)cc1Br` gave a Vm in test [1] of 9.8 µM/min/mg.
